These results are taken from article PMC9794768, “Molecular mechanism of substrate recognition by folate transporter SLC19A1” (Cell Discovery, 2022).

Structures are written as SMILES.

In experiment [1] the target is T1, SLC19A1 (Homo sapiens, UniProt P41440).
T1 sequence (P41440 1-591): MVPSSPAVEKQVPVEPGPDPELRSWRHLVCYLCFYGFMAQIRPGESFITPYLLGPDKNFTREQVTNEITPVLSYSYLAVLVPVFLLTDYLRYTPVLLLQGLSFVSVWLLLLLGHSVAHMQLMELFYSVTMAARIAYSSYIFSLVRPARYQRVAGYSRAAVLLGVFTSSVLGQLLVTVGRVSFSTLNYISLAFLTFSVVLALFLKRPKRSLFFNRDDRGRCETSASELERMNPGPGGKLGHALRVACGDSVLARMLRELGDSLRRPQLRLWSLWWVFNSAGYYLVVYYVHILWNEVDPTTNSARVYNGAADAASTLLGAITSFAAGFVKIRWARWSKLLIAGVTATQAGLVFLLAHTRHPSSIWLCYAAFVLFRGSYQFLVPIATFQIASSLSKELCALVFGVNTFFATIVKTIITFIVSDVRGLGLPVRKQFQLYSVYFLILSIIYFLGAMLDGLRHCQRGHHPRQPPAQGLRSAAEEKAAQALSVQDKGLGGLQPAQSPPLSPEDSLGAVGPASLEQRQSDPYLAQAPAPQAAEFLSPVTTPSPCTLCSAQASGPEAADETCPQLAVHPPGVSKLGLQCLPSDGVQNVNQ
The experiment is described as follows: [3H]-MTX uptake competition in HEK293F cells at […]; FSEC-based thermostability in detergent lysate. The format is cell-based. Set-up: GFP-tagged SLC19A1.

Experiment [2] concerns the target T1, SLC19A1. As to the kind of experiment: cryo-EM structure at […] Å and MST; also [3H]-MTX uptake inhibition (IC50 […]) and FSEC thermostability. The format is binding. Set-up: full-length SLC19A1 (MST); BRIL-SLC19A1/Fab/Nb (cryo-EM).
Experiment [3] concerns the target T1, SLC19A1. The experiment is described as follows: FSEC-based thermostability in detergent lysate; [3H]-MTX uptake competition in HEK293F cells at […]. The format is cell-based. Set-up: GFP-tagged SLC19A1.

Turning to `Cc1ncc(C[n+]2csc(CCOP(=O)(O)O)c2C)c(N)n1` [TMP, Thiamine monophosphate], the “[3H]-MTX uptake competition in HEK293F cells at 200 μM; FSEC-based thermostabili” value on SLC19A1 [1] is “TMP effectively competed with [^3H]-MTX in the transporter assay and enhanced the thermostability of SLC19A1”.

A word on the Kd: it is the concentration at which binding is half-saturated. A low value points to tighter binding. For the compound `Cc1ncc(C[n+]2csc(CCO[P@](=O)(O)OP(=O)(O)O)c2C)c(N)n1` [TPP, thiamine pyrophosphate], the affinity on SLC19A1 [2], expressed as Kd, was 327 ± 76 µM. For `Nc1nc(=O)c2nc(CNc3ccc(C(=O)N[C@@H](CCC(=O)O)C(=O)O)cc3)cnc2[nH]1` [folate], at SLC19A1 [3], the “FSEC-based thermostability in detergent lysate; [3H]-MTX uptake competition in H” value was “the well-documented substrates 5-MTHF and folate significantly enhanced the thermostability of SLC19A1”.
